We go through nine compounds from patent US11986471B2, “Compounds and methods of use” (Tango Therapeutics, Inc., priority 2018, dated 2024).

One assay has as its system HAP1 MTAP-intact. Description: SDMA in-cell western assay, HAP1 MTAP-intact cell line. The conditions noted are these: Homo sapiens. The format is cell-based. From the text: Table 1a also indicates IC50 values in an MTAP-isogenic cell line pair for exemplary compounds in an SDMA in-cell western assay (columns 7-8). HAP1 MTAP-intact is a cell line in which endogenous levels of MTAP are expressed, and HAP1 MTAP-deleted is an MTAP-null cell line. […] Compounds with a ratio in the SDMA in-cell western assay of equal to or greater than 3 fold are considered MTAP-selective.

For another assay, the system named is HAP1 MTAP-deleted. Description: SDMA in-cell western assay, HAP1 MTAP-deleted cell line. The conditions noted are these: for IC50: Homo sapiens, HAP1 MTAP-deleted cell line; for MTAP Intact/Deleted Ratio: IC50 ratio HAP1 MTAP-intact / HAP1 MTAP-deleted. Type of assay: cell-based. The text has this:
Table 1a also indicates IC50 values in an MTAP-isogenic cell line pair for exemplary compounds in an SDMA in-cell western assay (columns 7-8). HAP1 MTAP-intact is a cell line in which endogenous levels of MTAP are expressed, and HAP1 MTAP-deleted is an MTAP-null cell line.

Assay [1] has as its target T1, PRMT5 (Homo sapiens, UniProt O14744).
T1 construct: purchased Viva (custom protein)
The experiment in a line: PRMT5 IC50 assay in the presence of MTA as cofactor. Type of assay: biochemical. The note with it: for IC50: PRMT5, MTA as cofactor; for SAM/MTA Ratio: ratio between Ki in the presence of SAM and Ki in the presence of MTA. In outline: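 Each compound is tested on PRMT5 in the presence of SAM, of MTA, and without any cofactor. Ki values are then back-calculated using fixed factors of 1.5 (SAM) and 13.5 (MTA), and the two Ki values are compared as a ratio.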

Assay [2] addresses T1, PRMT5. Description: PRMT5 IC50 assay with no cofactor. The format is biochemical. The conditions noted are these: read-out: No Co-factor IC50. In outline:
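IC50 values were measured against human PRMT5 with SAM, with MTA, or with no cofactor. Ki was derived from IC50 as Ki=IC50/1.5 with SAM and Ki=IC50/13.5 with MTA, and the Ki(SAM)/Ki(MTA) ratio was then taken.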

Assay [3] concerns the target T1, PRMT5. The experiment in a line: PRMT5 IC50 assay in the presence of SAM as cofactor. The format is biochemical. In outline: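 Potency against PRMT5 is compared across cofactor states, where IC50 equals Ki×1.5 with SAM present and Ki×13.5 with MTA present.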

The IC50 is the point on the concentration scale where inhibition reaches its midpoint.

T1 sequence (O14744 whole entry): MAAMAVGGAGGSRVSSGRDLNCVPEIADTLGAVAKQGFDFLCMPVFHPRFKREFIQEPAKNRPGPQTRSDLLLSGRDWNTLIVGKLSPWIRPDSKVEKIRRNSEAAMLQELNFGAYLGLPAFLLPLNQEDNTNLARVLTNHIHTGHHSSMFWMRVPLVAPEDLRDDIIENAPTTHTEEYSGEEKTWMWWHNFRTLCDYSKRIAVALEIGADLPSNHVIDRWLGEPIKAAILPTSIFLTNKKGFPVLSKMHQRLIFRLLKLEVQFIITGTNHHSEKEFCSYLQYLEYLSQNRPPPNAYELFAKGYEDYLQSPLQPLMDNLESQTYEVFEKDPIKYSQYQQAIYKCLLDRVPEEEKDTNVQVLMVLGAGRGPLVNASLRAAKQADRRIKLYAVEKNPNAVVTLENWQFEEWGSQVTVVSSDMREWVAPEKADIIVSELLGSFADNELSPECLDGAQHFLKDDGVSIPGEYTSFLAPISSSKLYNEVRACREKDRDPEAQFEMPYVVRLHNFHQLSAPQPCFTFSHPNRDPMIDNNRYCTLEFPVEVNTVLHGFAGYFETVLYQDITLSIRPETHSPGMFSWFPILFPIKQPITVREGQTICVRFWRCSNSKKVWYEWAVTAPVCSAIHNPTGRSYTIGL
T1 sequence (Q9BQA1 whole entry partner): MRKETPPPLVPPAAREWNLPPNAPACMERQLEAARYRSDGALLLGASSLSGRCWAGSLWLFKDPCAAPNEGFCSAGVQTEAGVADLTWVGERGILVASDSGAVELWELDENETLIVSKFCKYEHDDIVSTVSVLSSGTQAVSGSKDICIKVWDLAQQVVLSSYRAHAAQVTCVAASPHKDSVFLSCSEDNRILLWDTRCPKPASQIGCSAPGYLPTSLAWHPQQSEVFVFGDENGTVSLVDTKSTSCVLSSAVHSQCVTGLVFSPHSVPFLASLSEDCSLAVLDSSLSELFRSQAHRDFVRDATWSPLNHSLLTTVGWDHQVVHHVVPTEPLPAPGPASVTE

Take `CC(=O)N1CC[C@H](Nc2cc(C(=O)NC[C@H](O)CN3CCc4cc(OCc5ocnc5C)ccc4C3)ncn2)C[C@H]1C` (mixture of isomers) [Compound 626, 6-{[(2RS,4SR)-1-acetyl-2-methylpiperidin-4-yl]amino}-N-[(2S)-2-hydroxy-3-{6-[(4-methyl-1,3-oxazol-5-yl)methoxy]-1,2,3,4-tetrahydroisoquinolin-2-yl}propyl]pyrimidine-4-carboxamide]: the IC50 in the assay with HAP1 MTAP-intact was 1000 to 10000 nM; in the assay on HAP1 MTAP-deleted, below 1000 nM; on PRMT5 [1], 50 to 500 nM; on PRMT5 [2], 500 to 5000 nM; on PRMT5 [3], 50 to 500 nM. In addition, the “MTAP Intact/Deleted Ratio” value in the assay with HAP1 MTAP-deleted is “B* (an IC50 ratio greater than or equal to 3 fold but lower than 10 fold between the IC50 in the HAP1 MTAP-intact cell line and the HAP1 MTAP-deleted cell line)”. In addition, at PRMT5 [1], the “SAM/MTA Ratio” value is “A (a Ki ratio greater than or equal to 10 fold between the Ki in the presence of SAM and the Ki in the presence of MTA)”.
For `CC(=O)N1CCC(Nc2cc(C(=O)NC[C@H](O)CN3CCc4cc(OCc5ocnc5C)ccc4C3)cc(N3CCCCC3)c2)CC1` (single isomer, unassigned) [Compound 631], the IC50 with HAP1 MTAP-intact was 1000 to 10000 nM; with HAP1 MTAP-deleted, below 1000 nM; on PRMT5 [1] it was 50 to 500 nM; at PRMT5 [2], at least 5000 nM; at PRMT5 [3], 50 to 500 nM. For the same compound, in the assay with HAP1 MTAP-deleted, the “MTAP Intact/Deleted Ratio” value was “B* (an IC50 ratio greater than or equal to 3 fold but lower than 10 fold between the IC50 in the HAP1 MTAP-intact cell line and the HAP1 MTAP-deleted cell line)”. On PRMT5 [1], the “SAM/MTA Ratio” value is “A (a Ki ratio greater than or equal to 10 fold between the Ki in the presence of SAM and the Ki in the presence of MTA)”.
With `CC(=O)N1CCC(Nc2cc(C(=O)NC[C@H](O)CN3CCc4cc(OCc5cnco5)ccc4C3)ncn2)CC1` [Compound 135, 6-[(1-acetyl-4-piperidyl)amino]-N-[(2S)-2-hydroxy-3-[6-(oxazol-5-ylmethoxy)-3,4-dihydro-1H-isoquinolin-2-yl]propyl]pyrimidine-4-carboxamide], the IC50 is 1000 to 10000 nM in the assay with HAP1 MTAP-intact; 1000 to 10000 nM with HAP1 MTAP-deleted; 50 to 500 nM on PRMT5 [1]; at least 5000 nM on PRMT5 [2]; 50 to 500 nM on PRMT5 [3]. Besides, the “MTAP Intact/Deleted Ratio” value in the assay on HAP1 MTAP-deleted is “C* (an IC50 ratio of less than 3 fold between the IC50 in the HAP1 MTAP-intact cell line and the HAP1 MTAP-deleted cell line)”. Further, the “SAM/MTA Ratio” value on PRMT5 [1] is “A (a Ki ratio greater than or equal to 10 fold between the Ki in the presence of SAM and the Ki in the presence of MTA)”.
`CC(=O)N1CCC(Nc2cc(C(=O)NC[C@H](O)CN3CCc4cc(OCc5ccnn5C)ccc4C3)ncn2)CC1` [Compound 140, 6-[(1-acetyl-4-piperidyl)amino]-N-[(2S)-2-hydroxy-3-[6-[(2-methylpyrazol-3-yl)methoxy]-3N-dihydro-1H-isoquinolin-2-yl]propyl]pyrimidine-4-carboxamide]: the IC50 in the assay on HAP1 MTAP-intact is at least 10000 nM; with HAP1 MTAP-deleted it was at least 10000 nM; at PRMT5 [1] it was 50 to 500 nM; on PRMT5 [2], at least 5000 nM; on PRMT5 [3], 500 to 5000 nM. Moreover, in the assay on HAP1 MTAP-deleted, the “MTAP Intact/Deleted Ratio” value is “C* (an IC50 ratio of less than 3 fold between the IC50 in the HAP1 MTAP-intact cell line and the HAP1 MTAP-deleted cell line)”. In addition, at PRMT5 [1], the “SAM/MTA Ratio” value was “A (a Ki ratio greater than or equal to 10 fold between the Ki in the presence of SAM and the Ki in the presence of MTA)”.
Consider `Cc1c(OCc2cnco2)ccc2c1CCN(C[C@@H](O)CNC(=O)c1ccnc(NC3CCC3)c1)C2` [Compound 179, 2-(cyclobutylamino)-N-[(2S)-2-hydroxy-3-[5-methyl-6-(oxazol-5-ylmethoxy)-3,4-dihydro-1H-isoquinolin-2-yl]propyl]pyridine-4-carboxamide], for which the IC50 with HAP1 MTAP-intact was at least 10000 nM; with HAP1 MTAP-deleted, 1000 to 10000 nM; on PRMT5 [1] it was 50 to 500 nM; at PRMT5 [2] it was at least 5000 nM; at PRMT5 [3] it was 50 to 500 nM. For the same compound, the “MTAP Intact/Deleted Ratio” value in the assay with HAP1 MTAP-deleted is “C* (an IC50 ratio of less than 3 fold between the IC50 in the HAP1 MTAP-intact cell line and the HAP1 MTAP-deleted cell line)”. Also, the “SAM/MTA Ratio” value on PRMT5 [1] is “A (a Ki ratio greater than or equal to 10 fold between the Ki in the presence of SAM and the Ki in the presence of MTA)”.
In the case of `O=C(NC[C@H](O)CN1CCc2c(ccc(OCc3cnco3)c2Cl)C1)c1ccnc(NC2CCC2)c1` [Compound 194, N-[(2S)-3-[5-chloro-6-(oxazol-5-ylmethoxy)-3,4-dihydro-1H-isoquinolin-2-yl]-2-hydroxy-propyl]-2-(cyclobutylamino)pyridine-4-carboxamide], the 50% inhibitory concentration (IC50) was at least 10000 nM in the assay on HAP1 MTAP-intact; at least 10000 nM with HAP1 MTAP-deleted; 50 to 500 nM at PRMT5 [1]; at least 5000 nM at PRMT5 [2]; 500 to 5000 nM on PRMT5 [3]. Moreover, in the assay on HAP1 MTAP-deleted, the “MTAP Intact/Deleted Ratio” value is “C* (an IC50 ratio of less than 3 fold between the IC50 in the HAP1 MTAP-intact cell line and the HAP1 MTAP-deleted cell line)”.
Regarding `CC(=O)N1CCC(Nc2cc(C(=O)NC[C@H](O)CN3CCc4c(ccc(OCc5cnco5)c4C)C3)ncn2)CC1` [Compound 198, 6-[(1-acetyl-4-piperidyl)amino]-N-[(2S)-2-hydroxy-3-[5-methyl-6-(oxazol-5-ylmethoxy)-3,4-dihydro-1H-isoquinolin-2-yl]propyl]pyrimidine-4-carboxamide], the IC50 was at least 10000 nM with HAP1 MTAP-intact; 1000 to 10000 nM in the assay with HAP1 MTAP-deleted; 50 to 500 nM on PRMT5 [1]; at least 5000 nM on PRMT5 [2]; 50 to 500 nM on PRMT5 [3]. Moreover, the “MTAP Intact/Deleted Ratio” value in the assay with HAP1 MTAP-deleted is “C* (an IC50 ratio of less than 3 fold between the IC50 in the HAP1 MTAP-intact cell line and the HAP1 MTAP-deleted cell line)”. Moreover, on PRMT5 [1], the “SAM/MTA Ratio” value was “A (a Ki ratio greater than or equal to 10 fold between the Ki in the presence of SAM and the Ki in the presence of MTA)”.
For the compound `CC(=O)N1CCC(Nc2cc(C(=O)NC[C@H](O)CN3CCc4cc(OCc5ocnc5C)ccc4C3)cc(C3CCCCC3)n2)CC1` [Compound 641, (S)-2-((1-acetylpiperidin-4-yl)amino)-6-cyclohexyl-N-(2-hydroxy-3-(6-((4-methyloxazol-5-yl)methoxy)-3,4-dihydroisoquinolin-2(1H)-yl)propyl)isonicotinamide], the 50% inhibitory concentration (IC50) in the assay on HAP1 MTAP-intact is below 1000 nM; on PRMT5 [1], below 50 nM; on PRMT5 [2], 500 to 5000 nM; on PRMT5 [3], 50 to 500 nM. At PRMT5 [1], the “SAM/MTA Ratio” value is “A (a Ki ratio greater than or equal to 10 fold between the Ki in the presence of SAM and the Ki in the presence of MTA)”.
As to `CC(=O)N1CCC(Nc2cc(C(=O)NC[C@H](O)CN3CCc4c(C)c(OCc5ocnc5C)cc(F)c4C3)ccn2)CC1` [Compound 642, 2-[(1-acetyl-4-piperidyl)amino]-N-[(2S)-3-[8-fluoro-5-methyl-6-[(4-methyloxazol-5-yl)methoxy]-3,4-dihydro-1H-isoquinolin-2-yl]-2-hydroxy-propyl]pyridine-4-carboxamide], the IC50 in the assay with HAP1 MTAP-intact was at least 10000 nM; at PRMT5 [1] it was 50 to 500 nM; on PRMT5 [2] it was 500 to 5000 nM; on PRMT5 [3], 50 to 500 nM. Moreover, the “SAM/MTA Ratio” value at PRMT5 [1] was “A (a Ki ratio greater than or equal to 10 fold between the Ki in the presence of SAM and the Ki in the presence of MTA)”.
